This note sets out measurements from US20210246164A1, “PEPTIDIC PROTEIN KINASE C INHIBITORS AND USES THEREOF” (UNIVERSITE DE GENEVE, priority 2016, published 2021).

Data set [1] relates to primary human bronchial epithelial cell monolayers. Briefly: Permeabilization of fluorescein-conjugated dextran (FD) across bronchial epithelial monolayers (cumulative release, Papp). It counts as cell-based. Here is the method: To assess the potential effects of peptides of the invention on the permeabilization of therapeutic molecules, fluorescein-conjugated dextrans (FD) were used to as a model for assessing paracellular drug transport (apical to basolateral) across the epithelial monolayer.
To ensure that the integrity of the monolayer was maintained during the course of the experiment, trans-epithelial electrical resistance (TEER) was measured before and after these studies, as described below.
Mucilair™ human primary nasal and bronchial epithelial cells (Epithelix sarl, Geneva, Switzerland) were used (Huang et. al., 2013, Toxicol. in Vitro 27: 1151-1156).
Before each experiment, the culture medium was removed from each compartment and the monolayer was washed once with 200 μl of saline (0.9%) and once with warm Hanks' Balanced Salt Solution (HBSS) (37° C.). In the basolateral compartment, 600 μL of pre-warmed HBSS was placed and the cells were returned to the incubator at 37° C. for 30 minutes to equilibrate. After equilibration, the peptides of the invention were applied to the apical side of an epithelial monolayer 5 minutes prior to the addition of FD solution. Peptide 1 according to the invention (P1 of SEQ ID NO: 2) was tested in comparison with comparative peptides C1 (SEQ ID NO: 4) and C2 (SEQ ID NO: 5). FD having a molecular weight (MW) of 4 and 150 kDa were used.
All peptides were used at a final concentration of 10 μM. The vehicle was used as a control (CTRL). The FD solution was added to the apical compartment to make a final volume of 200 μl. Samples of 100 μL were taken from the basal compartment of each well every 30 minutes over a period of 150 minutes, with each volume being replaced with equal amount of fresh warm buffer to maintain sink condition. The fluorescence of FD was measured in black 96-well plates using a fluorescence plate reader (BioTek Synergy Mx plate reader, BioTek Instruments GmbH, Lucerne, Switzerland), using excitation and emission wavelengths of 485 and 520 nm, respectively. Cumulative release (ng) corresponds to the actual amount of drug released cumulatively and corresponds to the amount in the suspension medium at any time plus the amount of the drug lost during each sampling.
Trans-epithelial electrical resistance (TEER): After addition of 200 μl of culture medium to the apical compartment of the tissue cultures, resistance was measured across cultures with an EVOMX volt-ohm-meter (World Precision Instruments UK, Stevenage) in triplicate for each time point. The TEER values (Ω) were converted normalized by using the following formula: TEER (Ωcm^2)=(resistance value (Ω)−100 (Ω))×0.33 (cm^2), where 100Ω is the resistance of the membrane and 0.33 cm^2 is the total surface of the epithelium.
To assess the role of the membrane penetrating group (myristoyl) in peptides of the invention in the enhancing of the permeability of macromolecules through epithelial cell layers, the permeabilizing capacity of peptide P1 of the invention was compared to a comparative peptide C3 (SEQ ID NO: 6) corresponding to the same peptide without the myristoyl group. The permeabilizing capacity of a peptide P2 (SEQ ID NO: 3) of the invention was also assessed. Uptake experiments and TEER were conducted as described in Example 2.
To assess the duration of the permeabilization effect of the peptide of the invention, apparent permeability of peptides of various lengths was evaluated as follows. Apparent permeability refers to the amount of released FD at that time point when the sample is collected.
The tested Peptides, uptake experiments and TEER were as described in Example 2.
Apparent permeability of FD: The apparent permeability (Papp) of FD was calculated using equation 1: Papp=(dQ/dt)/A*C0 (1)

The test system of data set [2] is Antigen-specific serum antibodies (IgG total and IgG1). Briefly: Intranasal immunization with Ova, antigen-specific serum antibodies by ELISA. It counts as in vivo, mice. As to conditions: i.n. 5 μg Ova with 5 μg P1 vs Ova alone; after three immunizations. An excerpt: The effect of peptides of the invention on the efficacy of mucosal vaccines has been investigated by administering a combination of P1 with a soluble protein antigen and induced immunization has been investigated.
6 week-old female C57-BL/6 mice were purchased from Charles River Laboratories (Harlan, France) and hosted under standard conditions following the corresponding guidelines of Animal Ethic Committee. Mice (n=5) were immunized by intranasal (i.n.) administration under anesthesia on days 0, 14, and 28 with the following immunogens: saline (PBS) as a negative control, ovalbumin (Ova) (in NaCl 0.9% solution) or Ova+P1 Ova/dose (5 μg) (mixture of solution of Ova in NaCl 0.9% and solution of P1 in NaCl 0.9%) as a mixture were administered to each animal group in 12 μL (6 μL per nostril). P1 was used at a concentration of 5 μg/dose. […]
Antigen-specific serum antibodies (IgG total and IgG1) were measured by ELISA (enzyme-linked immunosorbent assay). […] Plates were washed 4 times, and HRP was quantified by adding 100 μl of TMB (3,3′,5,5′-Tetramethylbenzidine) substrate (Pierce Protein Research Products; Rockford, Ill.). Antibody titers were determined at the midpoint of the optical density-log dilution curves after subtraction of the naive background, and none-responding mice were given an arbitrary titer of 10.

Setting [3] is: peptide 10 μM apical, 150 minutes, vs control.

Where a SMILES comes first, the peptide text is derived from it. The star is where a group is joined. Myristoyl = CCCCCCCCCCCCCC(=O)*

Regarding `CCCCCCCCCCCCCC(=O)N[C@@H](C)C(=O)N[C@@H](CCCNC(=N)N)C(=O)N[C@@H](CCCNC(=N)N)C(=O)N[C@@H](Cc1c[nH]c2ccccc12)C(=O)N[C@@H](CCCNC(=N)N)C(=O)O` [Peptide P1, Myr-ARRWR] (Myristoyl-ARRWR-OH), in data set [1] (setting [3]), the “permeability of FD of 150 kDa (cumulative release)” value is “significantly increases the permeability” and the “permeability of fluorescein conjugated dextran of 4 kDa (cumulative release)” value is reported as “increased the permeability of the fluorescein conjugated dextran of 4 kDa in a significant manner”. Besides, in data set [1] (peptide 10 μM, 150 minutes), the “Papp for FD of 150 kDa over time” value was “immediate increase in the first 30 minutes and steadily decreased therefrom”; the “reversibility of permeabilization of FD 4 kDa (decrease in Papp overtime)” value is “reversible”. In addition, the “reversibility of the permeabilization effect, FD of 150 kDa” value in data set [1] (peptide 10 μM, FIG. 6) was “Reversibility of the permeabilization effect was also observed”. Moreover, in data set [2], the “Ova-specific serum IgG1 response” value is “significantly higher” and the “Ova-specific serum IgG (total) response” value was “significantly higher”.
